Patent USRE47267E1, “Pyridinecarboxamides as CXCR2 modulators” (Syntrix Biosystems, Inc., priority 2009, dated 2019)

Assays:
[1] = biological target: T1, CXCR2 (Homo sapiens (Human), UniProt P25025); assay: In vitro agonist activity: intracellular calcium release in human neutrophils in the absence of GROα; format: cell-based
Description: This assay measures intracellular calcium release via fluorescence as an indication of CXCR2 receptor activation by the physiologic agonist GROα. The assay is a Ca^2+ mobilization assay that measures changes in intracellular Ca^2+ with a FlexStation II scanning fluorometer using a FLIPR-3 Calcium Assay Kit (Molecular Devices, Sunnyvale, Calif.). The procedure is as follows: • 1. Human neutrophils were suspended in HBSS^− (without Ca^2+ and Mg^2+) containing 10 mM HEPES and FLIPR Calcium 3 dye (3.1×10^7 cells in total volume 1.7 mL). • 2. […] As controls, 2 μL of DMSO (1% final concentration) were added to other 2 tubes. • 3. Cells were incubated for 30 min at 37° C. • 4. […] The cell suspension was aliquoted into a 96-well Reading Plate (Corning) in a volume of 90 μL (10^5 cells/well). […] After 15 sec of reading the basal level of fluorescence using the FlexStation II instrument, 10 μL of GROα or HBSS^− were automatically transferred from the Compound Plate into the Reading Plate (final concentration of GROα was 25 nM). • 8. Changes in fluorescence were monitored (λex=485 nm, λem=525 nm) every 5 s for 240 to 500 s at room temperature. • 9. The maximum change in fluorescence, expressed in arbitrary units over baseline (Max-Min) was used to determine the GROα response.
(§2) The maximum change in fluorescence, expressed in arbitrary units over baseline (Max-Min), was used to determine the GROα response.

[2] = tested on: neutrophil influx; assay: Murine air pouch model of neutrophil chemotaxis (p.o.); format: in vivo, male CD-1 mice; conditions: for total neutrophil counts in the blood: high doses, compared to control animals, data not shown
Description: Compounds 1 (SX-517) and 2 (SX-576) were also assayed in an in vivo air-pouch model of inflammation. SX-517 and SX-576 were able to attenuate neutrophil influx in the air-pouch model by about 50% at an oral dose of 0.2 and 0.05 mg/kg, respectively. […] More specifically, the procedure was performed by forming an air pouch on the backs of male CD-1 mice via the subcutaneous injection of air (2 mL). The next day, an additional subcutaneous injection of air (1.5 mL) was performed to reinflate the air pouch. The mice were given either vehicle control (Labrasol®) or test compound solubilized in Labrasol® via oral gavage. After 3 hours, either sterile phosphate buffered saline (PBS, 1 ml) or 2% carrageenan in sterile PBS (1 mL) was injected into the air pouch. After 4 hours, the mice were sedated with ketamine, and sacrificed by cervical dislocation. The exudate in the air pouch was collected by syringe, with an additional 2 mL wash with sterile PBS. The neutrophils were stained with trypan blue and counted on a hemocytometer under 20× magnification.

[3] = Crossover pharmacokinetic experiment in Beagle dogs; format: in vivo; conditions: for plasma level: dosed to Beagle dogs without excipient, data not shown
Description: In this study, male Beagle dogs (n=5) were dosed intravenously on study day 1 with SX-576 in dimethylformamide/PEG400/saline (40:40:20) at a dose level of 5 mg/kg and a dose volume of 0.5 mL/kg. Blood samples were taken predose, and at time points 30, 60, 90, 120, 180, 360, 540 and 720 minutes. The blood was collected in tubes containing K2EDTA as an anticoagulant, and the tubes were centrifuged and the plasma fractions collected and frozen. After a one-week washout period, the same Beagle dogs were dosed orally with SX-576 in lipid based excipient Gelucire® 44/14 (Gattefosse) at a dose level of 5 mg/kg. Blood samples were then taken and plasma fractions collected as previously described. Prior to analysis, the plasma samples were thawed and diluted 1:3 into acetonitrile containing 1 μM of compound 153 as an internal standard. The resulting samples were centrifuged and the supernatant analyzed by LC-MS monitoring in multiple reaction monitoring mode. The samples were run concomitantly with a calibration curve of SX-576 in the same internal standard solution.
(§1) The lipid based excipient Gelucire® 44/14 is a self-emulsifying drug delivery system (SEDDS) that is able to solubilize both SX-517 and SX-576 into aqueous solutions via micellular formation. […] Therefore, lipid-based emulsifiers are important excipients for the oral delivery of SX-576.

[4] = Aqueous solubility; format: physicochemical
From the text: as §1

[5] = biological target: T1, CXCR2; assay: β-arrestin recruitment to CXCR2 (β-galactosidase fragment complementation, DiscoveRx); conditions: for inhibition of β-arrestin recruitment following CXCR2 activation with IL-8: FIG. 2; for activity on β-arrestin complexation with CXCR2 in the absence of IL8: FIG. 3
[6] = biological target: T1, CXCR2; assay: Wash-resistant inhibition of GROα-mediated intracellular calcium release in isolated human neutrophils; format: cell-based; conditions: 0.4, 2 and 10 μM, 30 min incubation, washed; time points out to 6 hours; FIG. 1
Description: The cells were washed and resuspended in RPMI/2% serum (serum was obtained from the same donor as the neutrophils). The concentration of the neutrophil suspension was 10^7 cells/mL. […] The neutrophils were washed and resuspended in RPMI/2% serum and maintained at room temperature. At 30 minutes before each time point, a 56.25 μL aliquot of the neutrophils were removed and loaded for 30 minutes at room temperature in the dark with FLIPR-3 reagent (262.5 μL per tube).

[7] = tested on: neutrophil influx; assay: Murine air pouch model of neutrophil chemotaxis (i.v.); format: in vivo, male CD-1 mice; conditions: all tested dose levels 0.02, 0.05, 0.2 and 1.0 mg/kg, FIG. 6
Description: The procedure was performed by forming an air pouch on the backs of male CD-1 mice via the subcutaneous injection of air (2 mL). The next day, an additional subcutaneous injection of air (1.5 mL) was performed to reinflate the air pouch. The mice were given either vehicle control (dimethylformamide/PEG400/saline) or test compound solubilized in vehicle via tail vein injection. After 30 minutes, either sterile phosphate buffered saline (PBS, 1 ml) or 2% carrageenan in sterile PBS (1 mL) was injected into the air pouch. After 4 hours, the mice were sedated with ketamine, and sacrificed by cervical dislocation. The exudate in the air pouch was collected by syringe, with an additional 2 mL wash with sterile PBS. The neutrophils were stained with trypan blue and counted on a hemocytometer under 20× magnification.

[8] = tested on: ozone-induced pulmonary inflammation; assay: Ozone rat model of pulmonary inflammation; format: in vivo, Sprague-Dawley rats; conditions: 1 mg/kg i.v. at t=0, 5, 9 h, 1 ppm ozone 4 h
Description: Activity in this model of pulmonary inflammation would provide direct relevance towards the treatment of a number of pulmonary inflammatory diseases, including chronic obstructive pulmonary disease (COPD) and bronchopulmonary dysplasia (BPD). In this experiment, Sprague-Dawley rats (n=4 per cohort) were dosed intravenously at t=0 with either vehicle (negative and positive groups, dimethylformamide/PEG400/saline, 40:40:20) or SX-576 (1 mg/kg). The rats were then placed in air (negative group) or 1 ppm ozone (positive and SX-576 groups) for 4 hours. The rats were dosed again at t=5 and 9 hours. The rats were then sacrificed at t=24 hours, and the bronchoalveolar lavage fluid (BALF) was collected. The cells were spun down, stained with Wright-Giemsa and counted. In the negative groups, no neutrophils were observed when stained. As a measure of lung leakage/damage, protein levels were quantified in BALF by Bradford protein assay analysis.

[9] = biological target: T1, CXCR2; assay: Inhibition of GROα-mediated intracellular calcium release in human neutrophils (FLIPR-3 Ca2+ mobilization assay); format: cell-based; conditions: GROα 25 nM
Description: This assay measures intracellular calcium release via fluorescence as an indication of CXCR2 receptor activation by the physiologic agonist GROα. The assay is a Ca^2+ mobilization assay that measures changes in intracellular Ca^2+ with a FlexStation II scanning fluorometer using a FLIPR-3 Calcium Assay Kit (Molecular Devices, Sunnyvale, Calif.). The procedure is as follows: • 1. Human neutrophils were suspended in HBSS^− (without Ca^2+ and Mg^2+) containing 10 mM HEPES and FLIPR Calcium 3 dye (3.1×10^7 cells in total volume 1.7 mL). • 2. […] As controls, 2 μL of DMSO (1% final concentration) were added to other 2 tubes. • 3. Cells were incubated for 30 min at 37° C. • 4. After dye loading, tubes were centrifuged at 6,000 rpm for 1 min, supernatant was removed and cell pellet was re-suspended in 200 μL of HBSS^+ (with Ca^+ and Mg^2+) containing 10 mM HEPES. • 5. The compound or DMSO (control) was added again at the same concentrations that were used during cell loading. • 6. The cell suspension was aliquoted into a 96-well Reading Plate (Corning) in a volume of 90 μL (10^5 cells/well). The Compound Plate contained physiologic agonist (GROα in HBSS^−) or HBSS^− (control). • 7. […] The maximum change in fluorescence, expressed in arbitrary units over baseline (Max-Min) was used to determine the GROα response.
Briefly, human neutrophils were suspended in HBSS (without Ca^2+ and Mg^2+) containing 10 mM HEPES and FLIPR Calcium 3 dye (3.1×10^7 cells in total volume 1.7 mL). […] As controls, 2 μL of DMSO (1% final concentration) were added to 2 other tubes. Cells were incubated for 30 min at 37° C. After dye loading, tubes were centrifuged at 6,000 rpm for 1 min, supernatant was removed and the cell pellet was re-suspended in 200 μL of HBSS^+ (with Ca^2+ and Mg^2+) containing 10 mM HEPES. […] The cell suspension was aliquoted into a 96-well Reading Plate (Corning) in a volume of 90 μL (10^5 cells/well). […]
as §2

T1 sequence (P25025 whole entry): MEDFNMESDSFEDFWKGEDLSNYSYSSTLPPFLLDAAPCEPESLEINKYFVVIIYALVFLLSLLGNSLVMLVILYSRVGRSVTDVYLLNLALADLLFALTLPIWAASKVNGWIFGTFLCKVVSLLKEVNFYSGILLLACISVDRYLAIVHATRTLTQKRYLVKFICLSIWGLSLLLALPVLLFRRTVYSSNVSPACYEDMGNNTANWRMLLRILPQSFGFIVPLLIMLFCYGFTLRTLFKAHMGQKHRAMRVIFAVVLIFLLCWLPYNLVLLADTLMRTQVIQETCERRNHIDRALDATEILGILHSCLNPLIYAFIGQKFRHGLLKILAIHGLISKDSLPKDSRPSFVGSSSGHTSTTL

Row | Structure (SMILES) | total neutrophil counts in the blood [2] | plasma level [3] | aqueous solubility [4] | inhibition of β-arrestin recruitment following CXCR2 activation with IL-8 [5] | activity on β-arrestin complexation with CXCR2 in the absence of IL8 [5] | IC50 [9] [nM] | also measured
1 | O=C(Nc1ccc(F)cc1)c1ccc(SCc2ccccc2B(O)O)nc1 [Compound 1, 6-(2-borono-2-yl-benzylsulfanyl)-N-(4-fluoro-phenyl)-nicotinamide] | not significantly changed | undetected | poor | inhibited arrestin recruitment | acted as inverse agonists |  | agonist activity with respect to the release of intracellular calcium ([1]; listed as 1 (SX-517)): did not show agonist activity; agonist activity with respect to the release of intracellular calcium ([1]; listed as SX-517): did not exhibit any agonist activity; neutrophil influx ([2]; 0.005 and 0.2 p.o., FIG. 4): decrease of neutrophil influx; neutrophil influx ([2]; doses in excess of 10 mg/kg p.o., FIG. 4): increase in neutrophil influx
2 | O=C(Nc1ccc(F)cc1)c1ccc(SCc2cc(OC(F)(F)F)ccc2B(O)O)nc1 [Compound 2, 6-(2-boronic acid-5-trifluoromethoxy-benzylsulfanyl)-N-(4-fluoro-phenyl)-nicotinamide] | not significantly changed | undetected | poor | inhibited arrestin recruitment | acted as inverse agonists |  | inhibition of GROα mediated intracellular calcium release after inhibitor washout [6]: dose-dependent and wash-resistant inhibition; neutrophil influx ([2]; 0.05 mg/kg p.o., FIG. 5): decrease of neutrophil influx; neutrophil influx ([2]; doses in excess of 1 mg/kg p.o., FIG. 5): increase in neutrophil influx; neutrophil influx [7]: significantly attenuate neutrophil influx; influx of neutrophils into the lungs ([8]; BALF at 24 h, FIG. 7a): significantly decreased; influx of macrophages into the lungs ([8]; BALF at 24 h, FIG. 7b): significantly decreased; ozone-induced lung damage (protein levels in the BALF) ([8]; FIG. 7c): protected against ozone-induced lung damage; bioavailability following oral administration ([3]; Beagle dogs, 5 mg/kg oral in Gelucire 44/14): improved
3 | COc1ccc(B(O)O)c(CSc2ccc(C(=O)Nc3ccc(F)cc3)cn2)c1 [Compound 4, 6-(2-boronic acid-5-methoxy-benzylsulfanyl)-N-(4-fluoro-phenyl)-nicotinamide] |  |  |  |  |  | 79 | 
4 | Cc1nn(-c2ccccc2)nc1CSc1ccc(C(=O)Nc2ccc(F)cc2)cn1 [Compound 48] |  |  |  |  |  | > 5000 | 
5 | O=C(Nc1ccc(F)cc1)c1ccc(SC2CCOC2=O)nc1 (stereo not shown) [Compound 81] |  |  |  |  |  | > 5000 | 
